Test results taken from PubChem BioAssay (NCI).
Values after ≈ are worked out from the molar mass of the structure shown. Values joined by “and” are separate entries in the source; they are usually repeats but may differ in a detail not shown here. Equal entries are not always repeated.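 96-well plates; 48 h exposure; 5 concentrations. Endpoints by linear interpolation between flanking doses. Not reached: highest tested concentration assigned. GI50 is the concentration that inhibits growth by half. TGI marks complete inhibition of growth.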 Active and inactive are the calls of the source. Rule as the data show it: active = GI50 below about 0.43 µM; inactive = the rest.

Key:
Experiment in all cases: DTP human tumour cell line panel, 48 h
DMS 273 small cell lung = system: DMS 273 small cell lung
HOP-18 NSCLC = system: HOP-18 NSCLC
M19-MEL melanoma = system: M19-MEL melanoma
U251 CNS = system: U251 CNS
UACC-257 melanoma = system: UACC-257 melanoma
XF 498 CNS = system: XF 498 CNS
DLD-1 colon = system: DLD-1 colon
NCI/ADR-RES ovarian = system: NCI/ADR-RES ovarian

O=C(CSc1nnc(-c2ccc(N=Cc3ccc(Cl)cc3)cc2)o1)Nc1cccc(Cl)c1 gave a TGI (DMS 273 small cell lung) greater than 100 µM, a TGI (HOP-18 NSCLC) greater than 100 µM and a TGI (M19-MEL melanoma) greater than 100 µM. For the same compound, the TGI (U251 CNS) was greater than 100 µM, the TGI (UACC-257 melanoma) was greater than 100 µM and the TGI (XF 498 CNS) was greater than 100 µM.

COc1cc2c(cc1O)C(C)Cc1cc3c(cc1N(C)CC2)OCO3 (stereo unspecified) was tested, and the TGI (DLD-1 colon) was 42.7 µM, the TGI (DMS 273 small cell lung) was 13 µM and the TGI (HOP-18 NSCLC) was 90.9 µM. It also gave a TGI (M19-MEL melanoma) greater than 40.8 µM, a TGI (U251 CNS) of 14.8 µM and a TGI (UACC-257 melanoma) greater than 47.2 µM. It also gave a TGI (XF 498 CNS) of 20.4 µM.

For Cn1c(=O)c2nc(N3CCCCC3)cnc2n(C)c1=O, the TGI (DLD-1 colon) was greater than 100 µM, the TGI (M19-MEL melanoma) was greater than 100 µM and the TGI (U251 CNS) was greater than 100 µM. The TGI (UACC-257 melanoma) was greater than 100 µM and the TGI (XF 498 CNS) was greater than 100 µM.

Compound CC(C)(O)[C@H](CCO)O[Si](c1ccccc1)(c1ccccc1)C(C)(C)C has a TGI (DLD-1 colon) of 21 µM, a TGI (DMS 273 small cell lung) of 24.2 µM and a TGI (HOP-18 NSCLC) of 11.1 µM. For the same compound, the TGI (M19-MEL melanoma) was 29.3 µM, the TGI (U251 CNS) was 24.9 µM and the TGI (UACC-257 melanoma) was 29.7 µM. It also gave a TGI (XF 498 CNS) of 20.7 µM.

In the case of COc1cc2c(cc1OC)C(Cc1c3ccccc3cc3ccccc13)N(C)CC2 (stereo unspecified), the TGI (DLD-1 colon) is reported as greater than 100 µM, the TGI (DMS 273 small cell lung) is reported as 74.1 µM and the TGI (HOP-18 NSCLC) is reported as 50.4 µM. The TGI (M19-MEL melanoma) was 49.8 µM, the TGI (NCI/ADR-RES ovarian) was greater than 74.1 µM and the TGI (U251 CNS) was 35.6 µM. The TGI (UACC-257 melanoma) was 35.5 µM and the TGI (XF 498 CNS) was 38.8 µM.

CCNCCCCNCC showed a TGI (DLD-1 colon) greater than 3750 µM, a TGI (DMS 273 small cell lung) greater than 3750 µM and a TGI (HOP-18 NSCLC) greater than 37.5 µM. It also gave a TGI (M19-MEL melanoma) greater than 3750 µM, a TGI (NCI/ADR-RES ovarian) greater than 3750 µM and a TGI (U251 CNS) greater than 3750 µM. It also gave a TGI (UACC-257 melanoma) greater than 3750 µM and a TGI (XF 498 CNS) greater than 3750 µM.

COC(=O)NN1C(=O)C(=P(c2ccccc2)(c2ccccc2)c2ccccc2)C(C(=O)OC)=C1C gave a TGI (DMS 273 small cell lung) greater than 100 µM, a TGI (HOP-18 NSCLC) greater than 100 µM and a TGI (M19-MEL melanoma) greater than 100 µM. It also gave a TGI (U251 CNS) greater than 100 µM.

O=c1[nH]c(=O)n(C2CC(O)C(CO)O2)cc1C#Cc1cc(F)cc(F)c1 (stereo unspecified) showed a TGI (DLD-1 colon) greater than 100 µM, a TGI (DMS 273 small cell lung) greater than 100 µM and a TGI (HOP-18 NSCLC) of 83.2 µM. For the same compound, the TGI (M19-MEL melanoma) was greater than 100 µM, the TGI (U251 CNS) was greater than 100 µM and the TGI (UACC-257 melanoma) was greater than 100 µM. For the same compound, the TGI (XF 498 CNS) was greater than 100 µM.

O=C(O)CNS(=O)(=O)c1ccc(NC(=O)Nc2ccccc2)cc1 showed a TGI (DLD-1 colon) greater than 100 µM, a TGI (DMS 273 small cell lung) greater than 100 µM and a TGI (HOP-18 NSCLC) greater than 100 µM. The TGI (M19-MEL melanoma) was greater than 55.5 µM, the TGI (NCI/ADR-RES ovarian) was greater than 100 µM and the TGI (U251 CNS) was greater than 100 µM. For the same compound, the TGI (UACC-257 melanoma) was greater than 100 µM and the TGI (XF 498 CNS) was greater than 100 µM.

Compound C/C(=N/N)c1ccc2[nH]c3c(C)cc([N+](=O)[O-])c(C)c3c2c1 has a TGI (DMS 273 small cell lung) of 17.4 µM, a TGI (HOP-18 NSCLC) of 24 µM and a TGI (M19-MEL melanoma) of 27.1 µM. For the same compound, the TGI (UACC-257 melanoma) was 48.6 µM and the TGI (XF 498 CNS) was 24.7 µM.

O=C(c1ccccc1)c1c(CNCc2ccccc2)n(C(=O)c2ccccc2)c2ccccc12 showed a TGI (DLD-1 colon) greater than 100 µM, a TGI (DMS 273 small cell lung) greater than 100 µM and a TGI (M19-MEL melanoma) greater than 100 µM. It also gave a TGI (U251 CNS) greater than 100 µM, a TGI (UACC-257 melanoma) greater than 100 µM and a TGI (XF 498 CNS) greater than 100 µM.

Nc1ccc(N)c2c1C(=O)c1c(N)ccc(N)c1C2=O was tested, and the TGI (DLD-1 colon) was greater than 100 µM, the TGI (DMS 273 small cell lung) was greater than 100 µM and the TGI (HOP-18 NSCLC) was 64.7 µM. It also gave a TGI (M19-MEL melanoma) greater than 100 µM, a TGI (U251 CNS) greater than 100 µM and a TGI (UACC-257 melanoma) greater than 100 µM. It also gave a TGI (XF 498 CNS) greater than 89.2 µM.

NC(N)=Nc1nc2ccccc2[nH]1 was tested, and the GI50 (DLD-1 colon) was 54.4 µg/mL, the TGI (DLD-1 colon) was greater than 150 µg/mL and the GI50 (DMS 273 small cell lung) was 46.4 µg/mL. The TGI (DMS 273 small cell lung) was greater than 150 µg/mL, the outcome (HOP-18 NSCLC) was “inactive” and the GI50 (M19-MEL melanoma) was 20.3 µg/mL. For the same compound, the TGI (M19-MEL melanoma) was 51 µg/mL, the GI50 (NCI/ADR-RES ovarian) was 6.44 µg/mL (≈ 36.8 µM) and the TGI (NCI/ADR-RES ovarian) was greater than 150 µg/mL. The GI50 (U251 CNS) was 55.3 µg/mL, the TGI (U251 CNS) was greater than 150 µg/mL and the GI50 (UACC-257 melanoma) was 72.4 µg/mL. For the same compound, the TGI (UACC-257 melanoma) was greater than 150 µg/mL and the outcome (XF 498 CNS) was “inactive”.

CC1=C2C(O)C(C(C)C(=O)NC(C)C)CCC2(C)C=CC1=O (stereo unspecified) gave a TGI (DLD-1 colon) greater than 100 µM, a TGI (DMS 273 small cell lung) greater than 100 µM and a TGI (HOP-18 NSCLC) greater than 100 µM. It also gave a TGI (NCI/ADR-RES ovarian) greater than 100 µM, a TGI (U251 CNS) greater than 100 µM and a TGI (UACC-257 melanoma) greater than 100 µM. It also gave a TGI (XF 498 CNS) greater than 100 µM.

COc1cc([C@@H]2c3cc4c(c(O)c3C[C@H]3COC(=O)[C@@H]32)OCO4)cc(OC)c1O was tested, and the GI50 (DLD-1 colon) was 0.00421 µM and 0.02 µM, the TGI (DLD-1 colon) was greater than 200 µM and the GI50 (DMS 273 small cell lung) was 0.00198 µM. For the same compound, the GI50 (M19-MEL melanoma) was 0.00461 µM, the TGI (M19-MEL melanoma) was greater than 200 µM and the GI50 (U251 CNS) was 0.00228 µM and < 0.02 µM. For the same compound, the TGI (U251 CNS) was 0.00608 µM and < 0.02 µM, the GI50 (UACC-257 melanoma) was 0.005 µM and the TGI (UACC-257 melanoma) was greater than 20 µM. For the same compound, the TGI (XF 498 CNS) was 0.702 µM.

In the case of COc1cc(C=O)c(-c2cc3c(cc2C=O)OCO3)c(OC)c1OC, the TGI (DLD-1 colon) is reported as greater than 290 µM, the TGI (DMS 273 small cell lung) is reported as greater than 290 µM and the TGI (HOP-18 NSCLC) is reported as greater than 290 µM. The TGI (M19-MEL melanoma) was greater than 290 µM, the TGI (U251 CNS) was greater than 290 µM and the TGI (UACC-257 melanoma) was greater than 290 µM.

Cc1cc(NCCCCCCNc2cc(C)nc3ccc(Cl)cc23)c2cc(Cl)ccc2n1 was tested, and the TGI (DLD-1 colon) was 30.8 µM, the TGI (DMS 273 small cell lung) was 42.1 µM and the TGI (M19-MEL melanoma) was 43.4 µM. For the same compound, the TGI (U251 CNS) was 30.6 µM, the TGI (UACC-257 melanoma) was 44.9 µM and the TGI (XF 498 CNS) was 32 µM.

In the case of S=C(Nc1ccccc1)N1N=C2c3ccccc3CC[C@H]2[C@@H]1c1ccccc1, the TGI (DLD-1 colon) is reported as greater than 100 µM, the TGI (HOP-18 NSCLC) is reported as greater than 100 µM and the TGI (M19-MEL melanoma) is reported as greater than 100 µM. For the same compound, the TGI (U251 CNS) was greater than 100 µM, the TGI (UACC-257 melanoma) was greater than 100 µM and the TGI (XF 498 CNS) was greater than 100 µM.

For N#Cc1c2nc3ccccc3nc2n2ccc3ccccc3c12, the TGI (DLD-1 colon) was greater than 100 µM, the TGI (DMS 273 small cell lung) was greater than 100 µM and the TGI (HOP-18 NSCLC) was greater than 100 µM. It also gave a TGI (M19-MEL melanoma) greater than 100 µM, a TGI (U251 CNS) greater than 100 µM and a TGI (UACC-257 melanoma) greater than 100 µM.

CC(=O)NC(CCCCNC(=O)N(C)N=O)C(=O)NCc1ccccc1 (stereo unspecified) was tested, and the TGI (DLD-1 colon) was greater than 100 µM, the TGI (DMS 273 small cell lung) was greater than 100 µM and the TGI (M19-MEL melanoma) was greater than 100 µM. The TGI (U251 CNS) was greater than 100 µM, the TGI (UACC-257 melanoma) was greater than 100 µM and the TGI (XF 498 CNS) was greater than 100 µM.

Cc1cc(-c2ccccc2)cc2[n+]1CC=C2 gave a TGI (DLD-1 colon) greater than 100 µM, a TGI (DMS 273 small cell lung) greater than 100 µM and a TGI (M19-MEL melanoma) greater than 100 µM. The TGI (U251 CNS) was greater than 100 µM and the TGI (UACC-257 melanoma) was greater than 100 µM.

For COc1ccc([C@@H]2CC(=O)NCCCCNCCCN2)cc1, the TGI (DLD-1 colon) was greater than 100 µM, the TGI (DMS 273 small cell lung) was greater than 100 µM and the TGI (HOP-18 NSCLC) was greater than 100 µM. It also gave a TGI (M19-MEL melanoma) greater than 100 µM, a TGI (U251 CNS) greater than 100 µM and a TGI (UACC-257 melanoma) greater than 100 µM. It also gave a TGI (XF 498 CNS) greater than 100 µM.
